Among the data in PubChem BioAssay AID1902 (Broad Institute, 2009) are EC50 values, retold here.

Each structure is given as a SMILES string. pEC50: −log10 of the molar value. Calls of active or inactive are those of the source.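 How the source made its calls: active means EC50 no more than a set limit of log units above the highest dose; inactive means the rest.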

The target of the experiment is S. pyogenes SKKanGAS, kanamycin survival, BacTiterGlo, 6 h. The experiment is described as follows: SKKanGAS survival reduction under kanamycin, dose response, streptokinase promoter inhibitor project, SKKanGAS strain, luminescence, dose confirmation (AID 1902).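 Further: lower survival reflects blocked streptokinase promoter driving kanamycin resistance gene.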
As to `CC(OC(=O)CC1CCCC1)C(=O)Nc1ccc(S(N)(=O)=O)cc1` (stereo unspecified), the EC50 is > 15 µM (inactive).
On to `CN(C)CCCn1c(SCC(=O)Nc2nc(-c3cccc(Br)c3)cs2)nc2ccccc2c1=O`, for which the negative logarithm of the EC50 (pEC50) is 5.33.
`Oc1ccc(/C=C/c2ccc3cccc(O)c3n2)cc1Br`: the negative logarithm of the EC50 (pEC50) was 5.98.
With `CC(C)(C)CC(=O)N1CCC(c2nc3c(nnn3Cc3c(F)cccc3Cl)c(=O)[nH]2)CC1`, the pEC50 is 5.55.
`Cc1csc(NC(=O)c2c(O)c3c(n(CC(C)C)c2=O)CCCC3)n1`: the pEC50 is 4.96.
As to `O=C(c1cccs1)N1CCC(c2nc3c(nnn3Cc3ccccc3Cl)c(=O)[nH]2)CC1`, the pEC50 is 5.15.
Take `C/C(=N\NC(=O)c1ccc(-c2ccccc2)cc1)C1C(=O)c2ccccc2C1=O`: the pEC50 is 5.96.
Still for that read-out and setting: then `Cc1oc2cc(Br)c(O)c(Br)c2c1-c1ccccc1`, with 5.48; and `COc1ccc(CC2=CC(=O)c3ccccc3C2=O)cc1`, with 5.10.
Same read-out and setting: the figure for `COc1ccc(C2CC(c3ccccc3)=NN2C(=O)c2cccs2)cc1` (stereo unspecified) is 5.11; for `CC1C/C(=N\NC(=S)NCc2ccccc2)CC(C)(C)C1` (stereo unspecified) it is 5.40.
Turning to `Cc1ccc(C2Oc3ccccc3C3=C2C(c2cccs2)n2ncnc2N3)cc1` (stereo unspecified), the pEC50 is 5.42.
Consider `COc1cc(/C=C2/SC(=S)N(Cc3ccccc3)C2=O)cc(Cl)c1O`, for which the pEC50 is 5.59.
As to `Oc1c(Cl)cc(Cl)c2c1NCCC2`, the pEC50 is 5.27.
For the compound `CC(C)(CN=C1NS(=O)(=O)c2ccccc21)CNC(=O)c1ccccc1`, the EC50 is > 15 µM (inactive).
`CC1(C)Cc2c(cnn2-c2ccccc2)-c2c1c1ccccc1n2CC(O)CCl` (stereo unspecified): the pEC50 was 5.28.
As to `COC(=O)c1ccc(CN(c2ccc(C(=O)O)c(O)c2)S(=O)(=O)c2ccc(Cl)c([N+](=O)[O-])c2)cc1`, the pEC50 is 5.58.
Still for that read-out and setting: the figure for `Cc1ccc(C)c(-c2nnc(NC(=O)CCS(=O)(=O)c3ccccc3)o2)c1` is 5.06.
On to `O=C(Nc1cc(Cl)ccc1-n1cncn1)c1ccc([N+](=O)[O-])o1`, for which the pEC50 is 5.17.
As to `O=S(=O)(NCc1nnc2c(C(F)(F)F)cc(Cl)cn12)c1ccccc1`, the EC50 was > 15 µM (inactive).
`O=C(NC(=S)N1CCN(C(c2ccccc2)c2ccccc2)CC1)c1ccc(S(=O)(=O)N2CCOCC2)cc1`: the pEC50 was 5.59.
Same read-out and setting: then `COc1cccc(-c2nc(NC3CCCC3)c3ccccc3n2)c1O`, with 5.23.
In the case of `COc1ccc(OC)c(/C=N/n2c(-c3n[nH]c4c3CCC4)n[nH]c2=S)c1`, the EC50 is > 15 µM (inactive).
Regarding `COc1ccc(CCNC(=O)c2ccc(CNS(=O)(=O)c3ccc(C(C)(C)C)cc3)cc2)cc1OC`, the pEC50 is 5.16.
Same read-out and setting: then `CC(C)=CCc1c(-c2ccc(O)cc2O)oc2cc3c(c(O)c2c1=O)C=CC(C)(C)O3`, with 5.80; and `Oc1cccc2ccc(/C=C/c3c(F)cccc3Cl)nc12`, with 6.37.
As for `CC(/C=C/C=C/c1ccccc1)=N/NC(=O)c1ccc2c(c1)OCCO2`, the EC50 is > 15 µM (inactive).
Take `CCOC(=O)c1cnc(-n2nc(C)cc2C)nc1NC(C)c1ccccc1` (stereo unspecified): the pEC50 was 5.56.
Consider `Oc1c(C(Nc2ccccn2)c2cccnc2)cc(Cl)c2cccnc12` (stereo unspecified), for which the negative-log EC50 (pEC50) was 5.61.
Still for that read-out and setting: the figure for `COc1cc([N+](=O)[O-])cc(/C=N/NC(=O)c2cccnc2)c1O` is 5.58; for `Oc1cccc(/C=N/N(Cc2ccccc2)c2ccccc2)c1` it is 5.22.
On the same count and under the same terms, the figure for `O=C(Cc1csc(NC(=O)Nc2cccc(Cl)c2)n1)NCc1ccccn1` is 5.16; for `CCOC(=O)C1=C(C)n2c(s/c(=C/c3cccc([N+](=O)[O-])c3)c2=O)=NC1c1ccc(O)c(OC)c1` (stereo unspecified) it is 4.98.
`CC1CN(Cc2nc3c(c(=O)[nH]c(=O)n3C)n2CCCc2ccccc2)CC(C)O1` (stereo unspecified): the EC50 was > 15 µM (inactive).
For the compound `CN(C)[C@@H]1C(=O)C(C(N)=O)=C(O)[C@@]2(O)C(=O)C3=C(O)c4c(O)ccc(Cl)c4[C@@](C)(O)[C@H]3C[C@@H]12`, the pEC50 was 7.19.
`Cc1ccsc1C(=O)N(c1nc2ccccc2s1)c1c(C)cccc1C`: the pEC50 is 5.40.
With `O=C(c1cnn2c(C(F)(F)F)cc(-c3ccc(F)cc3)nc12)N1CCc2ccccc2C1`, the pEC50 is 4.92.
`Cc1cccc(NC(=O)NCc2ccc3c(c2)OCO3)c1`: the EC50 was > 15 µM (inactive).
With `COCCCn1c(=O)/c(=C\c2ccccc2OC(C)C)s/c1=C(/C#N)C(=O)Nc1ccc(C(=O)O)cc1`, the negative-log EC50 (pEC50) is 5.69.
On the same count and under the same terms, then `CCCCc1ccc(NC(=S)NCCc2ccc(F)cc2)cc1`, with 5.24; and `c1ccc(-c2onc(-c3ccco3)c2-c2ccc3[nH]ccc3c2)cc1`, with 5.38.
On to `Cc1ccc(NC(=O)c2nc[nH]c2C(=O)N[C@@H](C)c2ccccc2)cc1`, for which the pEC50 was 5.95.
The same measure, in the same setting: the figure for `CCOC(=O)c1ccc(Nc2nc(C)nc3c2nnn3Cc2ccccc2)cc1` is 5.17; for `Cc1cccc(Cn2nc(-n3cccc3)c3c(C)cc(C)nc32)c1` it is 5.17; for `C/C(=N\NC(=O)c1ccc(Cl)cc1)c1ccccn1` it is 5.83.
On the same count and under the same terms, the figure for `Clc1ccc(C2C3=C(Nc4ncnn42)c2ccccc2CC3)cc1` (stereo unspecified) is 4.94.
Take `C=C(C)COc1ccc(-c2nc(N)ncc2Oc2ccc(OC)cc2)c(O)c1`: the pEC50 is 5.18.
Same read-out and setting: the figure for `CSCc1cc(N(C)c2ccccc2)nc(-c2ccccn2)n1` is 6.87; for `CCC1CCCCN1S(=O)(=O)c1ccc(NC(=O)c2nc(S(C)(=O)=O)ncc2Cl)cc1` (stereo unspecified) it is 5.03; for `CC/C(=C/c1ccccc1)c1cccc2[nH]c3c(OC)cccc3c12` it is 5.60.
As for `Cc1ccc(Cc2cnc(N3C(=N)SC(c4ccccc4)C3=O)s2)cc1` (stereo unspecified), the pEC50 was 6.98.
For the compound `Cc1cc(-c2csc3nc[nH]c(=S)c23)cc(C)c1C`, the pEC50 is 5.78.
Same read-out and setting: the figure for `Cc1ccc(OCC(=O)NNC(=S)NC(=O)c2ccc(Br)o2)c(C)c1` is above 7.22; for `COc1c(N2CCN(C(=S)Nc3ccc(F)cc3)C(C)C2)c(F)cc2c(=O)c(C(=O)O)cn(C3CC3)c12` (stereo unspecified) it is 5.47.
Same read-out and setting: the figure for `C=CCn1c(O)c(N=NC(=S)Nc2ccccc2F)c2ccccc21` is 6.24.
Same read-out and setting: the figure for `Cc1nn2c(COc3ccc(NC(=O)c4ccccc4)cc3)nnc2c2ccccc12` is 6.22; for `CCCCCc1ccc(OCCCC[n+]2ccccc2)c(CCCCC)c1` it is 5.15; for `CCOC(=O)c1ccc(-c2ccc3c(=O)c4ccccc4n(C)c3c2)cc1F` it is 5.38.
For the compound `CCCC(=O)Nc1ccc2c(c1)nc(CCNC(=O)c1ccccc1)n2C`, the EC50 was > 15 µM (inactive).
As to `CCCCCCCCCCOC(=O)Cn1c(COc2cccc(C)c2)[n+](C)c2ccccc21`, the pEC50 is 5.55.
Same read-out and setting: the figure for `CCOC(=O)C1=C(N)Oc2ccc3ccccc3c2C1c1ccc(O)cc1` (stereo unspecified) is 5.25.
As for `CC[C@H]1OC(=O)[C@H](C)[C@@H](O[C@H]2C[C@@](C)(OC)[C@@H](O)[C@H](C)O2)[C@H](C)[C@@H](O[C@@H]2O[C@H](C)C[C@H](N(C)C)[C@H]2O)[C@](C)(O)C[C@@H](C)C(=NOCOCCOC)[C@H](C)[C@@H](O)[C@]1(C)O`, the pEC50 is above 7.22.
For the compound `CCOc1ccc2c(c1)C(=NNC(=O)c1ccncc1)c1cc(OCC)ccc1-2`, the pEC50 is 5.80.
For `COc1ccc(NC(=O)CSc2nc3nc(-c4cccs4)cc(C(F)(F)F)c3c(=O)[nH]2)c(OC)c1`, the negative logarithm of the EC50 (pEC50) is 5.13.
In the case of `O=C(c1ccc2c3n(nc2c1)-c1ccccc1CO3)N1CCCCC1`, the pEC50 was 5.03.
With `c1ccc2c(c1)ncn2CCCOc1ccc2c(c1)CCC2`, the pEC50 is 5.13.
For the compound `CC(=O)N1c2ccc(S(=O)(=O)N3CCC(C(=O)Nc4cc(C)ccn4)CC3)cc2CC1C` (stereo unspecified), the EC50 is > 15 µM (inactive).
Take `CC(C)(C)c1cc(C(=O)N/N=C/c2ccc([N+](=O)[O-])s2)n[nH]1`: the pEC50 is 5.13.
Consider `CNC1=C(N(C(C)=O)c2ccc(Br)cc2)C(=O)c2ccccc2C1=O`, for which the pEC50 is 5.20.
Still for that read-out and setting: the figure for `CC1(C)S[C@@H]2[C@H](NC(=O)Cc3ccccc3)C(=O)N2[C@H]1C(=O)O` is above 7.22.
Turning to `Cc1ccc(Nc2nc(N)nc(CN3CCN(c4ccccc4)CC3)n2)cc1Cl`, the pEC50 was 4.88.
Still for that read-out and setting: then `Oc1ccccc1C1=NN(c2ccccc2)C(c2ccccc2)C1` (stereo unspecified), with 5.56; and `CC1(C)CC(=O)C2=C(C1)N=C1c3ccccc3C(=O)C1C2c1ccc(Cl)cc1` (stereo unspecified), with 5.09.
Turning to `Oc1ccc(/C=N/Nc2nc(-c3ccc(Cl)cc3)cc(C(F)(F)F)n2)cc1`, the pEC50 is 5.10.
Regarding `Cc1noc(C)c1-c1nnc(-c2ccc(OC(F)(F)F)cc2)o1`, the EC50 is > 15 µM (inactive).
Turning to `CCOc1ccccc1C(=O)OCC(=O)Nc1nnc(-c2ccccc2)o1`, the pEC50 is 5.16.
The same measure, in the same setting: then `COc1cc([N+](=O)[O-])cc(/C=N/NC(=O)c2cc(-c3ccccc3)nc3ccccc23)c1O`, with 5.50; and `CCCCCCCCCCCCCCCC[N+](C)(C)CC`, with 5.66.
With `CCCCCCCCCCCCOC(=O)C[N+](C)(C)C`, the pEC50 was 5.52.
On to `COCCSc1ccccc1C(=O)N1CCCC(C)C1` (stereo unspecified), for which the EC50 is > 15 µM (inactive).
Consider `CC1(C)COCN1S(=O)(=O)c1ccc(C(=O)Nc2nnc(-c3ccc(Cl)s3)o2)cc1`, for which the pEC50 is 6.34.
For the compound `COc1ccccc1C(=O)NNC(=S)NC(=O)c1cc(OC)c(OC)c(OC)c1`, the pEC50 is 6.01.
Regarding `O=C1c2cccc3cccc(c23)C(=O)N1CC1CCN(CC(O)COc2ccc3ccccc3c2)CC1` (stereo unspecified), the pEC50 is 5.17.
Still for that read-out and setting: the figure for `C[C@H]1[C@H](C)CC[C@]2(C)CC[C@]3(C)C(=CC[C@@H]4[C@@]5(C)CC[C@@H](O)[C@](C)(C(=O)O)[C@@H]5CC[C@]43C)[C@H]12` is 6.00.
On the same count and under the same terms, the figure for `Nc1[nH]n2c(=O)cc(-c3ccccc3)nc2c1N=Nc1ccccc1` is 5.74.
On to `Oc1c(CN2CCN(c3ccccn3)CC2)cc(Cl)c2cccnc12`, for which the pEC50 was 5.25.
Same read-out and setting: then `COc1ccc(/C=C2\SC(=N)N(c3nccs3)C2=O)cc1OC`, with 6.08.
On the same count and under the same terms, then `Cc1cccc2sc(NC(=O)c3ccc(NS(=O)(=O)c4cccs4)cc3)nc12`, with 5.89.
The same measure, in the same setting: then `Fc1ccc(-c2cc(C(F)(F)F)nc(N3CCCCC3)n2)cc1`, with 5.33; and `CCn1nc(-c2ccccc2)nc2c(=O)n(C)c(=O)nc1-2`, with 5.81; and `Cc1cc(NC(c2ccc(Cl)cc2)c2ccc3cccnc3c2O)no1` (stereo unspecified), with 6.22.

As a reminder, the EC50 is the concentration giving half of the maximal effect. Usually pEC50 stands for the EC50 on a negative log10 scale, so that one unit is a factor of ten.
